A short description of series [1]: Clearance in human liver microsomes at 1 uM up to 60 mins by LC-MS/MS analysis. The series is classed as ADME.
The nature of series [2]: physchem. To be noted: buffer.
A short description of series [3]: Clearance in CD-1 mouse hepatocytes at 1 uM up to 3 hrs by LC-MS/MS analysis. The series is classed as ADME, cell-based, Hepatocyte.
Series [4] can be described thus: Clearance in CD-1 mouse liver microsomes at 1 uM up to 60 mins by LC-MS/MS analysis. Format: ADME, Microsome.
Series [5] can be described thus: Cmax in NCR nude mouse at 10 mg/kg, po bid after 24 hrs. The series is classed as ADME, organism-based. The arrangement: dose 10 mg/kg, route oral. The conditions noted are these: in vivo.
Series [6] is described as follows: in vitro. The conditions noted are these: dog, MDCK.
A short description of series [7]: AUC (0 to last) in NCR nude mouse at 10 mg/kg, po bid after 24 hrs. Format: ADME, organism-based. Also noted: time 0 - last, dose 10 mg/kg, route oral. The conditions noted are these: plasma.
For series [8] the following is noted: buffer, 24 h.

These results are taken from ChEMBL document CHEMBL3124860, “Fragment-based identification of amides derived from trans-2-(pyridin-3-yl)cyclopropanecarboxylic acid as potent inhibitors of human nicotinamide phosphoribosyltransferase (NAMPT)” (J Med Chem, 2014).

Converted amounts (≈) assume the structure as drawn.

With `Nc1ccc(CNC(=O)Nc2ccc(S(=O)(=O)c3ccccc3)cc2)cn1`, in series [1], the CLhep predicted at 1 µM is 5 mL/min/kg. In series [2], this compound had a solubility at 24 h of 99 µM (≈ 37.9 µg/mL).

Turning to `CCCn1cc(S(=O)(=O)c2ccc(NC(=O)[C@H]3C[C@@H]3c3cccnc3)cc2)cn1`, the figures for the CLhep predicted at 1 µM in series [3], in series [4] and in series [1] were 75 mL/min/kg, 79 mL/min/kg and 13 mL/min/kg, respectively. Also, the solubility at 24 h in series [2] came to 16 µM (≈ 6.57 µg/mL). This compound showed a peak concentration (Cmax) in series [5] of 34.6 µM. In series [6], this compound displayed a Papp A→B at 10 µM of 7.1 ×10⁻⁶ cm/s. This compound showed an area under the curve AUC(0-t) at 24 h in series [7] of 126 µM·h.

Regarding `CC(C)n1cc(S(=O)(=O)c2ccc(NC(=O)[C@@H]3C[C@H]3c3cccnc3)cc2)cn1`, the CLhep predicted at 1 µM in series [1] was 12 mL/min/kg. In series [2], this compound registered a solubility at 24 h of 59 µM (≈ 24.2 µg/mL).

For `CC(C)n1cc(S(=O)(=O)c2ccc(NC(=O)[C@H]3C[C@@H]3c3cccnc3)cc2)cn1`, the CLhep predicted at 1 µM was 76 mL/min/kg in series [3], 80 mL/min/kg in series [4] and 11 mL/min/kg in series [1]. Further, in series [2], the solubility at 24 h came out at 77 µM (≈ 31.6 µg/mL). This compound displayed a Papp A→B at 10 µM in series [6] of 9.7 ×10⁻⁶ cm/s.

As for `O=S1(=O)N=C(NCc2ccc(S(=O)(=O)c3ccccc3)cc2)Nc2ccncc21`, in series [1], the CLhep predicted at 1 µM was 6 mL/min/kg. Besides, the concentration in solution in series [2] (solubility at 24 h) came to 1 µM (≈ 0.428 µg/mL). The compound further came in with a Papp A→B at 10 µM in series [6] of 0.8 ×10⁻⁶ cm/s.

Take `O=S1(=O)NC(NCc2ccc(S(=O)(=O)N3CCC(N4CCCC4)CC3)cc2)=Nc2ccncc21`: in series [1], the CLhep predicted at 1 µM was 8 mL/min/kg. For the same compound, the solubility at 24 h in series [2] worked out at 104 µM (≈ 52.5 µg/mL). Besides, in series [6], the apparent permeability from apical to basolateral (Papp A→B) at 10 µM turned out to be 0.1 ×10⁻⁶ cm/s.

As to `O=C(Nc1ccc(S(=O)(=O)N2CC3CCC(C2)O3)cc1)[C@@H]1C[C@H]1c1cccnc1` (mixture of isomers), in series [1], the CLhep predicted at 1 µM is 16 mL/min/kg.

Turning to `CC(C)(C)OC(=O)N1C[C@@H]2CCN(C(=O)[C@@H]3C[C@H]3c3cccnc3)[C@@H]2C1` (racemic), the CLhep predicted at 1 µM in series [1] is 18 mL/min/kg. This compound registered a solubility at 24 h in series [2] of 165 µM (≈ 59 µg/mL).

Consider `Cc1nn(C(C)C)cc1S(=O)(=O)c1ccc(NC(=O)[C@@H]2C[C@H]2c2cccnc2)cc1` (racemic), for which the CLhep predicted at 1 µM in series [1] was 16 mL/min/kg. The solubility at 24 h in series [2] amounted to 1 µM (≈ 0.425 µg/mL).

As to `O=C(Nc1ccc(S(=O)(=O)c2cnn(C3CCOCC3)c2)cc1)[C@@H]1C[C@H]1c1cccnc1` (racemic), the CLhep predicted at 1 µM in series [3] is 51 mL/min/kg; in series [4] it was 77 mL/min/kg; in series [1], 15 mL/min/kg.

In the case of `CC(C)(C)OC(=O)N1C[C@H]2CCN(C(=O)[C@@H]3C[C@H]3c3cccnc3)[C@H]2C1` (racemic), in series [1], the CLhep predicted at 1 µM was 18 mL/min/kg. The same compound displayed a solubility at 24 h in series [2] of 165 µM (≈ 59 µg/mL).

In the case of `O=C(NCCCCC1CCN(C(=O)c2ccccc2)CC1)[C@@H]1C[C@H]1c1cccnc1` (racemic), the CLhep predicted at 1 µM in series [1] is 19 mL/min/kg. In series [2], the solubility at 24 h came out at 223 µM (≈ 90.4 µg/mL).

On to `O=C(NCCCCCCOc1ccc(Cl)cc1)[C@@H]1C[C@H]1c1cccnc1` (racemic), for which the CLhep predicted at 1 µM in series [1] is 19 mL/min/kg. Besides, the solubility at 24 h in series [2] turned out to be 13 µM (≈ 4.85 µg/mL).

Turning to `Cc1ccc(S(=O)(=O)c2ccc(NC(=O)[C@@H]3C[C@H]3c3cccnc3)cc2)cn1` (racemic), in series [1], the CLhep predicted at 1 µM was 10 mL/min/kg. The compound also showed a solubility at 24 h in series [2] of 6 µM (≈ 2.36 µg/mL).

Consider `CS(=O)(=O)c1cccc(S(=O)(=O)c2ccc(NC(=O)[C@@H]3C[C@H]3c3cccnc3)cc2)c1` (racemic), for which the CLhep predicted at 1 µM in series [3] was 54 mL/min/kg; in series [4], 74 mL/min/kg; in series [1], 9 mL/min/kg. Besides, the solubility at 24 h in series [2] worked out at 1 µM (≈ 0.457 µg/mL). In series [6], this compound showed an apical-to-basolateral permeability (Papp A→B) at 10 µM of 2.7 ×10⁻⁶ cm/s.

Take `O=C(Nc1ccc(S(=O)(=O)c2cccc(OC(F)(F)F)c2)cc1)[C@@H]1C[C@H]1c1cccnc1` (racemic): the CLhep predicted at 1 µM was 49 mL/min/kg in series [3], 69 mL/min/kg in series [4] and 10 mL/min/kg in series [1]. Also, the concentration in solution in series [2] (solubility at 24 h) came to 1 µM (≈ 0.462 µg/mL). Further, the apparent permeability from apical to basolateral (Papp A→B) at 10 µM in series [6] amounted to 7.4 ×10⁻⁶ cm/s.

For the compound `O=C(Nc1ccc(S(=O)(=O)c2cccc(C(F)(F)F)c2)cc1)[C@@H]1C[C@H]1c1cccnc1` (racemic), in series [1], the CLhep predicted at 1 µM is 10 mL/min/kg. Further, the solubility at 24 h in series [2] was 1 µM (≈ 0.446 µg/mL).

`O=C(Nc1ccc(S(=O)(=O)c2cc(F)cc(F)c2)cc1)[C@@H]1C[C@H]1c1cccnc1` (racemic): the CLhep predicted at 1 µM in series [1] was 12 mL/min/kg. In series [2], this compound displayed a solubility at 24 h of 6 µM (≈ 2.49 µg/mL).

Take `CCn1cc(S(=O)(=O)c2ccc(NC(=O)[C@@H]3C[C@H]3c3cccnc3)cc2)cn1` (racemic): in series [1], the CLhep predicted at 1 µM was 8 mL/min/kg. The solubility at 24 h in series [2] stood at 72 µM (≈ 28.5 µg/mL).

As for `O=C(Nc1ccc(S(=O)(=O)c2cnn(CC(F)(F)F)c2)cc1)[C@@H]1C[C@H]1c1cccnc1` (racemic), the CLhep predicted at 1 µM in series [1] is 8 mL/min/kg. This compound had a solubility at 24 h in series [2] of 23 µM (≈ 10.4 µg/mL).

`CCCn1cc(S(=O)(=O)c2ccc(NC(=O)[C@@H]3C[C@H]3c3cccnc3)cc2)cn1` (racemic): the CLhep predicted at 1 µM in series [3] was 59 mL/min/kg; in series [4], 75 mL/min/kg; in series [1], 12 mL/min/kg. In addition, the concentration in solution in series [2] (solubility at 24 h) was 48 µM (≈ 19.7 µg/mL). In series [6], this compound came in with a Papp A→B at 10 µM of 11.5 ×10⁻⁶ cm/s.

Take `CC(C)(O)Cn1cc(S(=O)(=O)c2ccc(NC(=O)[C@@H]3C[C@H]3c3cccnc3)cc2)cn1` (racemic): the CLhep predicted at 1 µM in series [1] was 3 mL/min/kg. Moreover, the solubility at 24 h in series [2] worked out at 155 µM (≈ 68.3 µg/mL).

As to `CC(C)n1cc(S(=O)(=O)c2ccc(NC(=O)[C@@H]3C[C@H]3c3cccnc3)cc2)cn1` (racemic), the figures for the CLhep predicted at 1 µM in series [3] and in series [4] were 60 mL/min/kg and 75 mL/min/kg, respectively. Further, the solubility in series [8] worked out at 66 µM (≈ 27.1 µg/mL). Further, in series [6], the Papp A→B at 10 µM is 10 ×10⁻⁶ cm/s.

Turning to `Cc1c(S(=O)(=O)c2ccc(NC(=O)[C@@H]3C[C@H]3c3cccnc3)cc2)cnn1C(C)C` (racemic), the CLhep predicted at 1 µM in series [1] was 19 mL/min/kg. For the same compound, the concentration in solution in series [2] (solubility at 24 h) came to 30 µM (≈ 12.7 µg/mL).

Regarding `O=C(Nc1ccc(S(=O)(=O)c2ccccc2)cc1)[C@@H]1C[C@H]1c1cccnc1` (racemic), the results for the CLhep predicted at 1 µM in series [3] and in series [4] were 63 mL/min/kg and 76 mL/min/kg, respectively. In addition, the solubility in series [8] came out at 20 µM (≈ 7.57 µg/mL). Further, the apical-to-basolateral permeability (Papp A→B) at 10 µM in series [6] was determined as 24 ×10⁻⁶ cm/s.

On to `Nc1ccc([C@@H]2C[C@H]2C(=O)Nc2ccc(S(=O)(=O)c3ccccc3)cc2)cn1` (racemic), for which, in series [1], the CLhep predicted at 1 µM is 6 mL/min/kg. In series [2], the solubility at 24 h came out at 36 µM (≈ 14.2 µg/mL).

`O=C(Nc1ccc(S(=O)(=O)c2ccccc2)cc1)[C@@H]1C[C@H]1c1ccncc1` (racemic): the CLhep predicted at 1 µM in series [1] is 9 mL/min/kg. Further, the solubility at 24 h in series [2] was determined as 1 µM (≈ 0.378 µg/mL).

On to `O=C(Nc1ccc(S(=O)(=O)N2CCOCC2)cc1)[C@@H]1C[C@H]1c1cccnc1` (racemic), for which the CLhep predicted at 1 µM in series [1] is 13 mL/min/kg. In series [2], this compound came in with a solubility at 24 h of 88 µM (≈ 34.1 µg/mL).

Turning to `O=C(Nc1ccc(S(=O)(=O)C2CCOCC2)cc1)[C@@H]1C[C@H]1c1cccnc1` (racemic), the CLhep predicted at 1 µM in series [1] is 13 mL/min/kg. Also, the solubility at 24 h in series [2] was determined as 93 µM (≈ 35.9 µg/mL).

Regarding `O=C(NCc1ccc(S(=O)(=O)c2ccccc2)cc1)[C@@H]1C[C@H]1c1cccnc1` (racemic), the CLhep predicted at 1 µM in series [1] was 15 mL/min/kg. Also, in series [2], the solubility at 24 h was 15 µM (≈ 5.89 µg/mL).

As for `Nc1ccc([C@@H]2C[C@H]2C(=O)NCc2ccc(S(=O)(=O)c3ccccc3)cc2)cn1` (racemic), the CLhep predicted at 1 µM in series [1] is 9 mL/min/kg. The same compound yielded a solubility at 24 h in series [2] of 7 µM (≈ 2.85 µg/mL).

For the compound `O=C(NCc1ccc(S(=O)(=O)c2ccccc2)cc1)[C@@H]1C[C@H]1c1ccncc1` (racemic), the CLhep predicted at 1 µM in series [1] is 9 mL/min/kg. The amount in solution in series [2] (solubility at 24 h) came to 59 µM (≈ 23.2 µg/mL).

Turning to `CC(C)(C)OC(=O)N1CC2(CCN(C(=O)[C@H]3C[C@@H]3c3cccnc3)C2)C1` (relative stereo), the CLhep predicted at 1 µM in series [1] is 10 mL/min/kg. Moreover, the concentration in solution in series [2] (solubility at 24 h) was 133 µM (≈ 47.5 µg/mL).

As to `O=C(Nc1ccc(S(=O)(=O)c2ccccc2)cc1)[C@H]1C[C@@H]1c1cccnc1` (single isomer, unassigned; enantiomer 1), the CLhep predicted at 1 µM in series [3] is 78 mL/min/kg; in series [4], 79 mL/min/kg; in series [1], 11 mL/min/kg. Further, the concentration in solution in series [2] (solubility at 24 h) was 15 µM (≈ 5.68 µg/mL). The Papp A→B at 10 µM in series [6] was determined as 21.2 ×10⁻⁶ cm/s.

`O=C(Nc1ccc(S(=O)(=O)c2ccccc2)cc1)[C@@H]1C[C@H]1c1cccnc1` (single isomer, unassigned; enantiomer 2): the CLhep predicted at 1 µM in series [1] was 7 mL/min/kg. For the same compound, the solubility at 24 h in series [2] stood at 15 µM (≈ 5.68 µg/mL).

Regarding `N#CN=C(NCCCCCCOc1ccc(Cl)cc1)Nc1ccncc1` [CHS-828], the CLhep predicted at 1 µM in series [1] was 15 mL/min/kg. Also, the concentration in solution in series [2] (solubility at 24 h) came to 2.2 µM (≈ 0.818 µg/mL).

`O=C(/C=C/c1cccnc1)NCCCCC1CCN(C(=O)c2ccccc2)CC1` [DAPORINAD]: in series [1], the CLhep predicted at 1 µM is 15 mL/min/kg.
